Data reported in US20170273949A1, “AGENT FOR PREVENTING AND/OR TREATING OPHTHALMOLOGIC DISEASES” (MITSUBISHI TANABE PHARMA CORPORATION, priority 2014, published 2017).

What was measured:
[1] = system: mouse models induced to have choroidal neovascularization (CNV) by laser irradiation (CNV models); test: laser-induced choroidal neovascularization (CNV) mouse model, area of CNV; type: in vivo; details: mice; 3 mg/kg or 10 mg/kg edaravone into the caudal vein immediately after laser irradiation; choroidal flat mount 14 days after irradiation; FIG. 1A, 1B
Procedure: In such CNV models, macrophages migrate as a result of provocation of inflammation by laser irradiation. Consequently, VEGF is generated, and new blood vessels are formed.
A 10-fold dilution of a mixed anesthetic solution of ketamine and xylazine (7:1) was administered at a dose of 10 mL/kg into the femoral muscle of each mouse, and one eye was then irradiated with laser at 6 sites with equal intervals on the circumference of discus nervi optici (wave length: 647 nm, spot size: 50 μm, irradiation time: 100 msec, and laser output: 120 mW). Immediately after the laser irradiation, 3 mg/kg edaravone, 10 mg/kg edaravone, or 10 mL/kg normal saline was administered into the caudal vein of each mouse. Thereafter, fundus photography was carried out using a fundus camera. Fourteen days after the laser irradiation, a 10-fold dilution of Fluorescite (registered trademark) Injection Solution No. 1 was administered at a dose of 0.5 mL/kg into the caudal vein under the same anesthesia as described above, and fluorescein fundus photography was then carried out using a fundus camera. […] The expression of CNV was evaluated by choroidal flat mount. Using a confocal laser scanning microscope, the CNV was photographed, and the area of CNV was then measured. […]

[2] = system: human retinal microvascular endothelial cells (HRMECs); test: VEGF-induced cell growth of HRMECs (cell counting kit-8); type: cell-based; details: edaravone 1, 10 or 100 μM added 1 hour before VEGF 10 ng/mL, 24 hours, control without VEGF = 100%, FIG. 2
Procedure: Using CSC Complete Recombinant Medium, human retinal microvascular endothelial cells (HRMECs) were plated at a cell density of 2×10^3 cells/well on a 96-well plate. Twenty-four hours after plating, the medium was exchanged with a CSC medium containing 10% fetal bovine serum (FBS). Then, twenty-four hours after the medium exchange, edaravone was added in a final concentration of 1, 10 or 100 μM to an edaravone addition group. One hour after the addition of edaravone, to a vascular endothelial growth factor (VEGF) addition group, VEGF was added in a final concentration of 10 ng/mL. Twenty-four hours after the addition of VEGF, in order to remove the reagent and VEGF, the medium was exchanged again with a CSC medium containing 10% FBS. After completion of the medium exchange, cell counting kit-8 was added, and the absorbance at 450 nm was then measured (defined as “measurement value 1”). Three hours after the measurement of the absorbance, the second absorbance measurement was carried out (defined as “measurement value 2”). The measurement value 1 was subtracted from the measurement value 2, and the obtained value was then corrected, using a control group, to which VEGF had not been added, as 100%. The thus obtained value was defined as a growth rate. The cells were cultured under conditions of 37° C. and 5% CO2, except for the operations.

For `CC1=NN(c2ccccc2)C(=O)C1` [edaravone, 3-methyl-1-phenyl-2-pyrazolin-5-one], the “CNV formation (area of CNV)” value [1] was “inhibited” and the “cell growth induced by VEGF (growth rate)” value [2] was “suppressed”.
